# Measured values taken from ChEMBL document CHEMBL5053530, “Neopetrosidines A-D, pyridine alkaloids isolated from the marine sponge Neopetrosia chaliniformis and their cell cycle elongation activity” (Bioorg Med Chem, 2021).
# The source made the active and inactive calls. No cut-off for these calls is given here.
# Key:
# HeLa/Fucci2 [1] = assay: Induction of cell cycle duration in human HeLa/Fucci2 cells assessed as increase in G1 phase duration measured every 20 mins for 96 hrs by time-lapse imaging analysis; assay type: functional, cell-based; details: dose 1.25-10 µM
# [2] = Induction of cell cycle duration in human HeLa/Fucci2 cells assessed as increase in G1/S phase duration at 5 uM measured every 20 mins for 96 hrs by time-lapse imaging analysis (reference value: 4.8 +/- 0.3 hrs); assay type: functional
# HeLa = assay: Induction of mitochondria membrane potential loss in human HeLa cells at 5 uM measured after 1 hr by JC1 dye based fluorescence microscopic analysis; assay type: functional, cell-based
# [3] = Effect on glycolysis in human HeLa/Fucci2 cells assessed as increase in lactate production per ug protein at 5 uM incubated for 24 hrs by LDH Assay (reference value: 19.6 +/- 6.2 nmol); assay type: functional
# HeLa/Fucci2 [4] = assay: Antiproliferative activity against human HeLa/Fucci2 cells assessed as reduction in cell viability incubated for 48 hrs under glucose-limiting condition by LDH assay; assay type: functional, cell-based
# HeLa/Fucci2 [5] = assay: Antiproliferative activity against human HeLa/Fucci2 cells reduction in cellular ATP production incubated for 4 hrs by CellTiter-Glo cell viability assay; assay type: functional, cell-based; details: dose 1.3-5 µM
# HeLa/Fucci2 [6] = assay: Induction of cell cycle duration in human HeLa/Fucci2 cells assessed as increase in S/G2/M phase duration measured every 20 mins for 96 hrs by time-lapse imaging analysis; assay type: functional, cell-based; details: dose […]
# HeLa/Fucci2 [7] = assay: Induction of cell cycle duration in human HeLa/Fucci2 cells assessed as increase in G1/S phase duration measured every 20 mins for 96 hrs by time-lapse imaging analysis; assay type: functional, cell-based; details: dose 1.25-10 µM
# [8] = Induction of cell cycle duration in human HeLa/Fucci2 cells assessed as increase in G1 phase duration at 5 uM measured every 20 mins for 96 hrs by time-lapse imaging analysis (reference value: 5 +/- 0.8 hrs); assay type: functional
# [9] = Induction of cell cycle duration in human HeLa/Fucci2 cells assessed as increase in S/G2/M phase duration at 5 uM measured every 20 mins for 96 hrs by time-lapse imaging analysis (reference value: 7.1 +/- 0.7 hrs); assay type: functional
# HeLa/Fucci2 [10] = assay: Cytotoxicity against human HeLa/Fucci2 cells assessed as reduction in cell growth measured after 3 days by MTT assay; assay type: functional, cell-based; details: HeLa/Fucci2, 72 h
# [11] = Effect on glycolysis in human HeLa/Fucci2 cells assessed as increase in lactate production per ug protein at 0.1 uM incubated for 24 hrs by LDH Assay (reference value: 19.6 +/- 6.2 nmol); assay type: functional
compound,measurement,setting,value
C1=C\CCCCCC[n+]2cccc(c2)CCCCCCCCCCCCCC[n+]2cccc(c2)CCCCCC/1.O=C[O-].O=C[O-],Activity,HeLa/Fucci2 [1],Dose-dependent effect
same,Time,[2],9.3 h
same,Activity,HeLa,Active
same,Activity,[3],27.9 nmol
same,Activity,HeLa/Fucci2 [4],Active
same,Activity,HeLa/Fucci2 [5],Dose-dependent effect
same,Activity,HeLa/Fucci2 [6],Dose-dependent effect
same,Activity,HeLa/Fucci2 [7],Dose-dependent effect
same,Time,[8],12 h
same,Time,[9],14.7 h
same,IC50,HeLa/Fucci2 [10],1200 nM
C1=C\CCCCCC[n+]2cccc(c2)CCCCCC/C=C\CCCCCC[n+]2cccc(c2)CCCCCCCC/1,IC50,HeLa/Fucci2 [10],2600 nM
C1=C\CCCCCC[n+]2cccc(c2)CCCCCC/C=C\CCCCCC[n+]2cccc(c2)CCCCCC/1,IC50,HeLa/Fucci2 [10],2400 nM
C=C(C)[C@H]1Cc2c(ccc3c2O[C@@H]2COc4cc(OC)c(OC)cc4[C@@H]2C3=O)O1 [ROTENONE],Activity,[11],34.5 nmol
C1=C\CCCCCCc2ccc[n+](c2)CCCCCC/C=C\CCCCCCc2ccc[n+](c2)CCCCCCCC/1,IC50,HeLa/Fucci2 [10],2600 nM
